# Key:
# HDAC1 = HDAC1 (Homo sapiens, UniProt Q13547); assay: HDAC activity assay (microfluidics mobility shift), HDAC1; type: biochemical; settings: compound concentration 1 μM; non-covalent dual inhibitors
# Method: (§1) HDAC ACTIVITY ASSAYS: HDAC activity is measured using a microfluidics mobility shift platform. A fluorescently labeled substrate is reacted with the enzyme along with addition of test compounds followed by reading through microfluidic chips. Enzyme activity is determined through quantitative comparison of the […] that results from enzymatic activity.
# (§2) The concentration of each non-covalent inhibitor compound tested in this study was 1 μM.
# HDAC6 = biological target: T1, HDAC6 (Homo sapiens, UniProt Q9UBN7); assay: HDAC activity assay (microfluidics mobility shift), HDAC6; type: biochemical; settings: for inhibition at 1 µM: compound concentration 1 μM, non-covalent dual inhibitors; for IC50 / HDAC1/HDAC6 (HDAC1 IC50/HDAC6 IC50, selectivity for HDAC6): covalent dual inhibitors
# T1 sequence (Q9UBN7 1-1215): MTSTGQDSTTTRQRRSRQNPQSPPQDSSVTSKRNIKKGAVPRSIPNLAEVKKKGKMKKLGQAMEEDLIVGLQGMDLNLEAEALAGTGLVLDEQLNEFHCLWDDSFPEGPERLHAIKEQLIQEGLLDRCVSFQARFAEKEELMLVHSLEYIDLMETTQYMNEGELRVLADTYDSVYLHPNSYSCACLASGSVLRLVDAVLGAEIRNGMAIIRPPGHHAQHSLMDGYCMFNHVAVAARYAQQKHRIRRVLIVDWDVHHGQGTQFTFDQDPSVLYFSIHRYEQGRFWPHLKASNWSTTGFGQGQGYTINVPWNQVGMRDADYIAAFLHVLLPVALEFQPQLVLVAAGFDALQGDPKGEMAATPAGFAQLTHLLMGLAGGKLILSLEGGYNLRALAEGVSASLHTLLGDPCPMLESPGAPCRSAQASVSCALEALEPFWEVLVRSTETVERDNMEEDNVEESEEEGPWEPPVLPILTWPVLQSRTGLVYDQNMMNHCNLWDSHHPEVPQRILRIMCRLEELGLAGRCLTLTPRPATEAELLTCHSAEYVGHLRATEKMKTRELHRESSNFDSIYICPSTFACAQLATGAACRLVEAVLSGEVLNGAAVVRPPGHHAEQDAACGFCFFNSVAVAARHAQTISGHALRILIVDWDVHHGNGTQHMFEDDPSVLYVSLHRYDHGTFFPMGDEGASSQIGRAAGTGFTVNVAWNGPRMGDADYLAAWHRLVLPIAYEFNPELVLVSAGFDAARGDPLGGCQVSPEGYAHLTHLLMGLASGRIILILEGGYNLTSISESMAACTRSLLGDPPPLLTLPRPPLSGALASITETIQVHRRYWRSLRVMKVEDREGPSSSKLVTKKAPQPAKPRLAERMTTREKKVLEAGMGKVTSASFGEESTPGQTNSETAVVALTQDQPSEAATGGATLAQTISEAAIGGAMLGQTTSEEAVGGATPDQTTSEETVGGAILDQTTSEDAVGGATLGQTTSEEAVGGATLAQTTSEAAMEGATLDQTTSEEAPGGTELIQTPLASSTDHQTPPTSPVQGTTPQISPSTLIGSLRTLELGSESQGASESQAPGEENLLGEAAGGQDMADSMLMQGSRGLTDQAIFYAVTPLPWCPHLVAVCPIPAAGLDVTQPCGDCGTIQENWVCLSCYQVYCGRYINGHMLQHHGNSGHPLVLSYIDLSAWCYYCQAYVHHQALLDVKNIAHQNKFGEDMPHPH
# Method: as §1, §2
# Chain of HDAC1 (Q13547 whole entry): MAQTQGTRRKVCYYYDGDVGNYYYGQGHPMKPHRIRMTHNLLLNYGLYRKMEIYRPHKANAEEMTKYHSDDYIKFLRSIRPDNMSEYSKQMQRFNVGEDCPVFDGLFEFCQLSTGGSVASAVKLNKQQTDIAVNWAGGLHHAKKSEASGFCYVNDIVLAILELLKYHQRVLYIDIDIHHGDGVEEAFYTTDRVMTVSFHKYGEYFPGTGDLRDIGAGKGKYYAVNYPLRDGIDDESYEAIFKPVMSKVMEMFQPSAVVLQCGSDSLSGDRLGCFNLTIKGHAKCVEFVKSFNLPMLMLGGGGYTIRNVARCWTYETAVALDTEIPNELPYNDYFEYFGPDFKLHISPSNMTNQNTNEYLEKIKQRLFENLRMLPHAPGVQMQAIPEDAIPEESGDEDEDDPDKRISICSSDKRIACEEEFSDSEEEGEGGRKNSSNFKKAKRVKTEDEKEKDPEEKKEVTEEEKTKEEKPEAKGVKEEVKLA
inhibition at 1 µM (HDAC1),"potency and selectivity for HDAC6 (HDAC6; FIG. 11, fold improvement over HDAC1 inhibition)",inhibition at 1 µM (HDAC6),IC50 (HDAC6),"HDAC1/HDAC6 (HDAC1 IC50/HDAC6 IC50, selectivity for HDAC6) (HDAC6)",SMILES
61%,highly potent,95%,,,C[C@H](NC(=O)[C@H](CC(=O)NCC(C)(C)C)NC(=O)CCC(=O)Nc1ccc(C(=O)NO)cc1)C(=O)NCc1ccc(F)cc1F [AMC-2-036]
41%,,59%,,,C[C@H](NC(=O)[C@H](CC(=O)NCC(C)(C)C)NC(=O)C(=O)c1c[nH]c2ccccc12)C(=O)NCc1ccc(F)cc1F [AMC-2-052]
74%,,86%,,,C[C@H](NC(=O)[C@H](CC(=O)NCC(C)(C)C)NC(=O)CCCCCCC(=O)NO)C(=O)NCc1ccc(F)cc1F [AMC-2-067]
65%,,13%,,,C[C@H](NC(=O)[C@H](CC(=O)NCC(C)(C)C)NC(=O)c1ccc(C(=O)Nc2ccccc2N)cc1)C(=O)NCc1ccc(F)cc1F [AMC-2-091]
3%,,18%,,,COC(=O)c1ccc(C(=O)N[C@@H](CC(=O)NCC(C)(C)C)C(=O)N[C@@H](C)C(=O)NCc2ccc(F)cc2F)cc1 [AMC-2-152]
1%,,8%,,,COC(=O)CCCCCCC(=O)N[C@@H](CC(=O)NCC(C)(C)C)C(=O)N[C@@H](C)C(=O)NCc1ccc(F)cc1F [AMC-2-198]
3%,,8%,,,C[C@H](NC(=O)[C@H](CC(=O)NCC(C)(C)C)NC(=O)CCCCCCC(=O)O)C(=O)NCc1ccc(F)cc1F [AMC-2-204]
-3%,,4%,,,C[C@H](NC(=O)[C@H](CC(=O)NCC(C)(C)C)NC(=O)c1ccc(C(=O)O)cc1)C(=O)NCc1ccc(F)cc1F [AMC-2-225]
,,,> 30 µM,,CC(C)C[C@H](NC(=O)[C@H](Cc1ccccc1)NC(=O)c1ccc(C(=O)NOC2CCCCO2)cc1)B1OC2C[C@H]3C[C@H](C3(C)C)[C@@]2(C)O1 (stereo partly drawn) [AMC-2-248]
,,,0.198 µM,14.3,CC(C)C[C@H](NC(=O)[C@H](Cc1ccccc1)NC(=O)c1ccc(C(=O)NO)cc1)B1OC2C[C@H]3C[C@H](C3(C)C)[C@@]2(C)O1 (stereo partly drawn) [AMC-3-017]
,,,8.12 µM,>3.69,CCNC(=O)ONC(=O)c1ccc(C(=O)N[C@@H](Cc2ccccc2)C(=O)N[C@@H](CC(C)C)B2OC3C[C@H]4C[C@H](C4(C)C)[C@@]3(C)O2)cc1 (stereo partly drawn) [AMC-3-019]
,,,0.884 µM,>33.9,CC(C)C[C@H](NC(=O)CNC(=O)c1ccc(C(=O)NOC(=O)Nc2ccccc2)cc1)B1OC2C[C@H]3C[C@H](C3(C)C)[C@@]2(C)O1 (stereo partly drawn) [AMC-3-030]
,,,0.258 µM,20.4,CC(C)C[C@H](NC(=O)CNC(=O)c1ccc(C(=O)NO)cc1)B1OC2C[C@H]3C[C@H](C3(C)C)[C@@]2(C)O1 (stereo partly drawn) [AMC-3-031]
,,,6.32 µM,4.75,CC(C)C[C@H](NC(=O)[C@H](Cc1ccccc1)NC(=O)c1ccc(C(=O)NOC(=O)NCc2ccccc2)cc1)B1OC2C[C@H]3C[C@H](C3(C)C)[C@@]2(C)O1 (stereo partly drawn) [AMC-3-033]
,,,0.061 µM,0.93,CC(C)C[C@H](NC(=O)[C@H](Cc1ccccc1)NC(=O)c1ccc(/C=C/C(=O)NO)cc1)B1OC2C[C@H]3C[C@H](C3(C)C)[C@@]2(C)O1 (stereo partly drawn) [AMC-3-041]
,,,3.42 µM,8.77,CC(C)C[C@H](NC(=O)CNC(=O)c1ccc(C(=O)NOC(=O)NCc2ccccc2)cc1)B1OC2C[C@H]3C[C@H](C3(C)C)[C@@]2(C)O1 (stereo partly drawn) [AMC-3-047]
,,,5.38 µM,>5.58,CCNC(=O)ONC(=O)c1ccc(C(=O)NCC(=O)N[C@@H](CC(C)C)B2OC3C[C@H]4C[C@H](C4(C)C)[C@@]3(C)O2)cc1 (stereo partly drawn) [AMC-3-048]
,,,1.15 µM,2.30,CCNC(=O)ONC(=O)/C=C/c1ccc(C(=O)NCC(=O)N[C@@H](CC(C)C)B2OC3C[C@H]4C[C@H](C4(C)C)[C@@]3(C)O2)cc1 (stereo partly drawn) [AMC-3-055]

# Reference: patent publication US20230159569A1, “DUAL HDAC6/PROTEASOME INHIBITORS, AND METHODS OF USE THEREOF” (UNIVERSITY OF MARYLAND, BALTIMORE, priority 2021, published 2023)
